Data taken from article PMC6440464 (PeerJ, 2019).
Several values for one entry are separate records, joined by “and”; a condition that tells them apart may be missing. Equal values may be shown once.

Assay: Pharmacokinetics study after separate oral administration in rats (HPLC-MS of plasma)
Format: in vivo, Sprague-Dawley rats
Settings: for Plasma concentrations: individual rats NO. 1-5; for AUC(0-t) / Cmax / MRT(0-t) / Tmax / t1/2z / CLz/F: labelled substance = analyte, individual rats No1-No5
Description: A total of 15 SPF Sprague-Dawley rats (SD, male, 190–210 g) were provided by Sino-British Sippr/BK Lab Animal Company Ltd. (Shanghai, China). The rats were kept in standard conditions (22–26 °C; 40–60% relative humidity; 12 h light/dark cycle). Throughout the rearing period, the animals had access to food and water ad libitum. Animal experiments were conducted in accordance with the standard ethical guidelines of the Laboratory Animal Management Committee of Jiangsu Province (SYXK (SU) 2016-0011).
Following 1 week of adaptation, the rats were fasted for about 12 h before dosing, with free access to water. […] After administration of the first dose, blood samples were taken from the retro-orbital vein at 0, 5, 15, 30, 60, 90, 120, 180, 240, 360, 480, and 1,440 min and collected in heparinized tubes. The samples were centrifuged at 3,500 rpm for 10 min at 4 °C and the plasma was stored at −80 °C until analysis.
An Agilent 1,200 series HPLC system (Agilent Technologies, Waldbronn, Germany) equipped with a quaternary pump on-line degasser, auto-sampler and column oven, and an SL G1946D quadruple mass spectrometer (Agilent Technologies, Santa Clara, CA, USA) equipped with an electrospray ionization (ESI) source, were used for separation and detection. Data were acquired and analyzed using Agilent ChemStation Software Version A.01.00 (Agilent Technologies, Santa Clara, CA, USA).
The separation was carried out with an Amethyst C18-H column (150 × 4.6 mm, 5 μm, Sepax Technologies, Newark, DE, USA) with a guard column SB-C18 (10 × 4.6 mm, 5 μm, Phenomenex Technologies, Torrance, USA) at a constant temperature of 25 °C.
The mass spectra were acquired using ESI interfaced to a single quadrupole mass spectrometer. The ionization conditions were as follows: drying gas (N2) flow rate of 11 L/min, drying gas temperature of 350 °C, nebulizing gas (N2) pressure of 35 psi, capillary voltage of 3,500 V, quad temperature of 100 °C, and fragment voltage of 110 V. A series of m/z were monitored using a timed program according to the retention times and characteristic ions for the corresponding HPLC-MS peak obtained by scanning from m/z 100–1,000 in the standard sample.
Briefly, an aliquot of plasma sample (100 μL) was spiked with 5% formic acid (10 μL) in centrifuge tube. Subsequently, hydrochloric acid (2 mol/L, 10 μL) and IS solution (960.00 ng/mL, 20 μL) were added. Then ethyl acetate/n-butyl alcohol (1:1 v/v; 1,000 μL) was used to extract the components. The samples were then homogenized by vortex mixing and centrifuged for 10 min at 14,000 rpm. After centrifugation, 800 μL of supernatant was transferred to another centrifuge tube and the sample was evaporated to dryness. The residues were dissolved in 100 μL of methanol and centrifuged for 10 min at 12,000 rpm. 50 μL of the supernatant was transferred to the vial and an aliquot of 5 μL was injected into the HPLC-MS system for analysis.
DAS 2.0 (Chinese Pharmacological Association, Shanghai, China) was used to calculate the pharmacokinetic parameters using the non-compartment model, including the area under curve (AUC), mean residence time (MRT), half-life ( t1/2z), clearance rate (CL), maximum plasma concentration (Cmax), and time (Tmax). All results are expressed as mean ± standard deviation (SD). One way analysis of variance followed by […] was used for comparison of different groups using Graph pad prism 5 software. A p-value of <0.05 was considered statistically significant.

[1] = IQ group (oral IQ 50 mg/kg), rat plasma
[2] = QG group (oral QG 50 mg/kg), rat plasma
[3] = Qr group (oral Qr 50 mg/kg), rat plasma

O=C(O)[C@H]1O[C@@H](Oc2c(-c3ccc(O)c(O)c3)oc3cc(O)cc(O)c3c2=O)[C@H](O)[C@@H](O)[C@@H]1O [QG, Quercetin-3-O-β-D-glucuronide]
Plasma concentrations (IQ group (oral IQ 50 mg/kg), 5 min): 0.7646 µg/mL and 1.0569 µg/mL | Plasma concentrations (IQ group (oral IQ 50 mg/kg), 120 min): 0.6158 µg/mL and 0.5082 µg/mL and 0.7807 µg/mL and 0.6334 µg/mL | Plasma concentrations (IQ group (oral IQ 50 mg/kg), 180 min): 0.8736 µg/mL and 0.5334 µg/mL and 0.3826 µg/mL and 0.3965 µg/mL and 0.7922 µg/mL | Plasma concentrations (IQ group (oral IQ 50 mg/kg), 240 min): 0.2228 µg/mL and 0.5709 µg/mL and 0.5714 µg/mL and 0.4349 µg/mL and 0.8190 µg/mL | Plasma concentrations (IQ group (oral IQ 50 mg/kg), 360 min): 0.1194 µg/mL and 0.8107 µg/mL and 0.4137 µg/mL and 0.6925 µg/mL and 0.8505 µg/mL | Plasma concentrations (IQ group (oral IQ 50 mg/kg), 480 min): 0.4225 µg/mL and 0.4165 µg/mL and 0.1673 µg/mL and 0.2461 µg/mL and 0.7377 µg/mL | Plasma concentrations (IQ group (oral IQ 50 mg/kg), 1440 min): 0.0935 µg/mL and 0.0847 µg/mL and 0.0809 µg/mL and 0.0651 µg/mL and 0.3494 µg/mL | AUC(0-t) [1]: 597.432 mg·min/L and 994.801 mg·min/L and 564.315 mg·min/L and 660.84 mg·min/L | Cmax [1]: 4534 ng/mL and 5953 ng/mL and 2825 ng/mL and 2800 ng/mL and 3414 ng/mL | MRT(0-t) [1]: 4.64393 h and 8.49298 h and 6.06248 h and 5.82378 h | Tmax [1]: 30 min | t1/2z [1]: 7.29975 h and 8.1253 h and 14.3264 h and 6.69975 h and 7.17603 h | Detection in rat plasma (IQ group: oral IQ 50 mg/kg): measured | Plasma concentrations (QG group (oral QG 50 mg/kg), 5 min): 0.0814 µg/mL and 0.1791 µg/mL and 0.1562 µg/mL and 0.4345 µg/mL and 0.2229 µg/mL | Plasma concentrations (QG group (oral QG 50 mg/kg), 120 min): 0.0799 µg/mL and 0.2388 µg/mL and 0.5950 µg/mL and 0.1120 µg/mL and 0.2189 µg/mL | Plasma concentrations (QG group (oral QG 50 mg/kg), 180 min): 0.7950 µg/mL and 1.4327 µg/mL and 2.4032 µg/mL and 0.2061 µg/mL and 1.3248 µg/mL | Plasma concentrations (QG group (oral QG 50 mg/kg), 240 min): 1.3178 µg/mL and 2.6305 µg/mL and 2.4984 µg/mL and 0.6490 µg/mL and 1.6470 µg/mL | Plasma concentrations (QG group (oral QG 50 mg/kg), 360 min): 0.1076 µg/mL and 2.2429 µg/mL and 3.2289 µg/mL and 1.3605 µg/mL and 1.5082 µg/mL | Plasma concentrations (QG group (oral QG 50 mg/kg), 480 min): 0.0874 µg/mL and 0.7211 µg/mL and 1.7586 µg/mL and 0.4951 µg/mL and 0.6594 µg/mL | Plasma concentrations (QG group (oral QG 50 mg/kg), 1440 min): 0.0575 µg/mL and 0.2816 µg/mL and 0.1651 µg/mL and 0.1404 µg/mL and 0.1134 µg/mL | AUC(0-t) [2]: 268.635 mg·min/L and 1176.18 mg·min/L and 1861.7 mg·min/L and 635.402 mg·min/L and 871.691 mg·min/L | CLz/F [2]: 0.17 L/min/kg and 0.038 L/min/kg and 0.026 L/min/kg and 0.067 L/min/kg and 0.054 L/min/kg | Cmax [2]: 1318 ng/mL and 2631 ng/mL and 3229 ng/mL and 1365 ng/mL and 1647 ng/mL | MRT(0-t) [2]: 7.8607 h and 7.11965 h and 7.95713 h and 7.028 h | t1/2z [2]: 6.12582 h and 5.27942 h and 8.9772 h and 6.00847 h | Detection in rat plasma (QG group: oral QG 50 mg/kg): could be detected in rat plasma | CL (QG group: oral QG 50 mg/kg, rat plasma, mean ± SD, n = 5): 71 ± 57 mL/min/kg | Plasma concentrations (Qr group (oral Qr 50 mg/kg), 5 min): 0.3755 µg/mL and 1.9735 µg/mL and 1.3717 µg/mL and 1.2834 µg/mL | Plasma concentrations (Qr group (oral Qr 50 mg/kg), 120 min): 1.6399 µg/mL and 0.4649 µg/mL and 2.4126 µg/mL and 2.1713 µg/mL and 0.6055 µg/mL | Plasma concentrations (Qr group (oral Qr 50 mg/kg), 180 min): 1.1714 µg/mL and 0.4542 µg/mL and 1.7560 µg/mL and 4.1932 µg/mL and 1.1826 µg/mL | Plasma concentrations (Qr group (oral Qr 50 mg/kg), 240 min): 1.0033 µg/mL and 1.3275 µg/mL and 1.0605 µg/mL and 1.9477 µg/mL and 0.8307 µg/mL | Plasma concentrations (Qr group (oral Qr 50 mg/kg), 360 min): 1.0844 µg/mL and 1.0457 µg/mL and 0.9781 µg/mL and 1.2903 µg/mL and 0.5532 µg/mL | Plasma concentrations (Qr group (oral Qr 50 mg/kg), 480 min): 0.9932 µg/mL and 0.4529 µg/mL and 0.7247 µg/mL and 0.7786 µg/mL and 0.5843 µg/mL | Plasma concentrations (Qr group (oral Qr 50 mg/kg), 1440 min): 0.1552 μg/mL and 0.4031 μg/mL and 0.5308 μg/mL and 0.0000 μg/mL (2×) | AUC(0-t) [3]: 1269.04 mg·min/L and 1058.23 mg·min/L and 1705.01 mg·min/L and 1261.98 mg·min/L and 455.81 mg·min/L | CLz/F [3]: 0.037 L/min/kg and 0.034 L/min/kg (2×) and 0.019 L/min/kg and 0.093 L/min/kg | Cmax [3]: 4415 ng/mL and 6941.3 ng/mL and 9165 ng/mL and 9211 ng/mL and 2540 ng/mL | MRT(0-t) [3]: 6.1781 h and 7.68988 h and 6.69422 h and 2.72245 h and 3.04182 h | Tmax [3]: 30 min and 60 min (2×) | t1/2z [3]: 7.30138 h and 12.1634 h and 20.1775 h and 3.02307 h and 2.81598 h | Detection in rat plasma (Qr group: oral Qr 50 mg/kg): detected
